The values that follow come from patent publication EP0369035A1, “AGENT FOR TREATING PANCREATITIS OR THE LIKE” (priority 1988, dated 1989).

Series [1] relates to experimental pancreatitis. Description: Effect on experimental pancreatitis (sodium taurochorate + trypsin into the common bile duct), survival ratio. Format: in vivo, SD-rats. The conditions noted are these: 80 μg/kg/min. x 80 min. continuous infusion, rat. An excerpt:
[II] Effect on experimental pancreatitis
SD-rats, body weight of about 200 g were, starved overnight, and 10 to 24 animals were used in one group. Sodium pentobarbital was intraperioneally administered to anesthetize each rat, and then a cannula was inserted to the femoral vein for the administration of the test substance. After abdominal surgery, the bile duct was blocked at a part thereof proximate to the liver, by a clip, a polyethylene tube was inserted to the common bile duct at a part thereof most proximate to the duodenum, and 0.1 ml of solution containing 2 mg sodium taurochorate and 1000 U trypsin dissolved in physiological saline was injected retrogrodely. After removal of the clip and tube, the common bile duct was ligated and the abdomen was closed. Note, the test substance was dissolved in an injective 5% glucose solution, and in the case of a continuous infusion, the solution was administered over 80 minutes starting from 10 minutes before the generation of pancreatitis. In the case of oral administration, the test substance was administered through an oral catheter 30 minutes before the generation of pancreatitis. After 24 hours and 48 hours from the generation of pancreatitis, the survival ratio of the animals was calculated and compared with a control group.

The target of the next series is T1, human plasma kallikrein (Homo sapiens, UniProt P03952).
T1 construct: 50 µl of 0.12 units/ml human plasma kallikrein solution
Nature of the series: Anti-plasma kallikrein activity: inhibition of S-2302 degradation. Format: biochemical. The note with it: substrate S-2302, 37°C, pH 7.8; read-out: Plasma kallikrein S-2302 (I50). On the procedure:
2) Assay of anti-plasma kallikrein activity Assay method of inhibition of S-2302 degradation
The test substance was dissolved in a 0.05 M Tris-HC1 (pH 7.8) buffer to make a total volume of 400 µl, and 50 µl of a 2 mM S-2302 solution was added to the solution. After incubation at 37°C for 5 minutes in an incubator, an addition of 50 µl of 0.12 units/ml human plasma kallikrein solution, and incubation at 37°C for 5 minutes, the reaction was terminated by an addition of 50 µl of 50% acetic acid.

The next series can be described thus: in vivo. The note with it: mouse, intravenous, ICR male mice, up-and-down method, read-out: Acute toxicity (LD50). Here is the method:
ICR male mice 5 to 10 weeks old were used. The test substance was dissolved in a 5% dimethylsulfoxide aqueous solution, and the solution was intravenously administered in an amount of 0.1 to 0.2 ml/10 g body weight. An LD50 value was calculated by up-and-down method.

Series [2] addresses T2, human plasmin (Homo sapiens, UniProt P00747).
T2 construct: 50 µl of 0.2 casein units/ml of human plasmin
Description: Anti-plasmin activity: inhibition of S-2251 degradation. In kind it is biochemical. The note with it: substrate S-2251, 37°C, pH7.4; read-out: Plasmin S-2251 (I50). On the procedure: ii) Assay method of inhibition of S-2251 degradation
The test substance was dissolved in a 0.05 M Tris-HC1 (pH7.4) buffer to make a total volume of 400 µl, and 50 µl of a 3 mM S-2251 solution was added to the solution. The mixture was incubated at 37°C for 5 minutes in an incubator, and after the addition of 50 µl of 0.2 casein units/ml of human plasmin, and incubation at 37°C for 4 minutes, the reaction was terminated by an addition of 50 µl of 50% acetic acid.

For a further series, the target named is human urokinase (Homo sapiens, UniProt P00749). Description: Anti-urokinase activity: inhibition of S-2444 degradation. In kind it is biochemical. The conditions noted are these: substrate S-2444, 37°C, pH 8.8; read-out: Urokinase S-2444 (I50). On the procedure:
3) Assay of anti-urokinase activity Assay method of inhibition of S-2444 degradation
The test substance was dissolved in a 0.05 M Tris-HC1 (pH 8.8) buffer to make a total volume of 400 µl, and 50 µl of a 1 mM S-2444 solution was added to the mixture. After incubation at 37°C for 5 minutes in an incubator, an addition of 50 µl of 500 units/ml human urokinase solution, and incubation at 37°C for 5 minutes, the reaction was terminated by an addition of 50 µl of 50% acetic acid.

The target of series [3] is T2, human plasmin. Nature of the series: Anti-plasmin activity: inhibition of fibrinolysis (fibrin clot lysis time). Format: biochemical. The conditions noted are these: concentration giving a fibrin clot lysis time twice that of control, 37°C, pH7.4; read-out: Plasmin Fibrin (I50).
A further series has as its system experimental shock. Description: Effect on experimental shock (endotoxin-induced), survival ratio. Format: in vivo, ICR-mice. The conditions noted are these: dose of 30 mg/kg intraperitoneally 15 minutes before endotoxin 40 mg/kg, mouse. Here is the method:
[IV] Effect on experimental shock
ICR-mice, body weight of about 25 g, were starved overnight. The test substance was dissolved in an injective 5% glucose solution and intraperioneally administered, and 15 minutes later, endotoxin (E. coli 0127:B8, Difco, U.S.) dissolved in a physiological saline was intraperioneally administered to an amount of 40 mg/kg body weight.

The next series has as its target T3, bovine factor Xa (Bos taurus, UniProt P00743).
T3 construct: 0.05 ml of 0.3 vial/ml bovine factor Xa
Description: Anti-FXa activity: inhibition of S-2222 degradation. In kind it is biochemical. The conditions noted are these: substrate S-2222, 37°C, pH 8.3; read-out: FXa S-2222 (I50). On the procedure: 4) Assay of anti-FXa activity Assay method of inhibition of S-2222 degradation
To 0.4 ml of the test substance dissolved in a 0.05 M Tris-HC1 (pH 8.3) buffer is added 0.05 ml of 3 mM S-2222 solution, and after incubation at 37°C for about 4 minutes, an addition of 0.05 ml of 0.3 vial/ml bovine factor Xa, and a reaction at 37°C for 4 minutes, the - reaction was terminated by adding 0.05 ml of 50% acetic acid.

Another series concerns experimental DIC. Nature of the series: Effect on experimental DIC and MOF (endotoxin-induced). The note with it: Dose 100 μg/kg/min infusion, rat, 4 hours after endotoxin 10 mg/kg; for CPK: Table 5-1. Format: in vivo, SD-rats. On the procedure: [III] Effect on experimental DIC
SD-rats, body weight of about 200 g, were starved overnight. Sodium pentobarbital was intraperioneally administered to anesthetize a rat, and then a cannula was inserted to the femoral vein, and the test substance dissolved in an injective 5% glucose solution was continually infused. Then, 10 minutes from the start of the injection, endotoxin (E. coli 0127:B8, Difco, U.S.) dissolved in physiological saline was injected through the tail vein to an amount of 10 mg/kg body weight, and 4 hours from the administration of endotoxin, the abdomen was opened, blood was obtained from the abdominal aorta, and platelets (Plt), fibrinogen (Fbg), fibrin degradation product (FDP), glutamic oxaloacetic transamirase (GOT), creatinine phosphokinase (CPK), and blood urin nitrogen (BUN) were measured.

T3 sequence (P00743 234-492 limits assumed): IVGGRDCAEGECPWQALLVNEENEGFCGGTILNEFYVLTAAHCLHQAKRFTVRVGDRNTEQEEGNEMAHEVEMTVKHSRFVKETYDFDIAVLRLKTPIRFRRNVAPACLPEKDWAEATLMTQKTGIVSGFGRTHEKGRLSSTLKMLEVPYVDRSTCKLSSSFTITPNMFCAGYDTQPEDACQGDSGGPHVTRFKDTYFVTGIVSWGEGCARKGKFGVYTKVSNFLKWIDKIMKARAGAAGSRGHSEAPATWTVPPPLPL
T3 sequence (P00743 41-180 partner limits assumed): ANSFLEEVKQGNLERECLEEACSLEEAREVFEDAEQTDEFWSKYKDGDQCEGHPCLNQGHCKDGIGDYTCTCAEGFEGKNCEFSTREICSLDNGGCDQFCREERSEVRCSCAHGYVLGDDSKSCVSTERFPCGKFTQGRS
T2 sequence (P00747 581-810 limits assumed): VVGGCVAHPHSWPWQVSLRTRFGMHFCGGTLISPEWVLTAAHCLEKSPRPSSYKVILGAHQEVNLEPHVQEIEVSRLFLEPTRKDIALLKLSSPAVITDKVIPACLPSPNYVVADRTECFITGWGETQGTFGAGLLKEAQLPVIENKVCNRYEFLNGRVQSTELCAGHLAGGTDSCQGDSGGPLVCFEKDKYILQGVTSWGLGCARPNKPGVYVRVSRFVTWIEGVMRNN
T2 sequence (P00747 97-580 partner limits assumed): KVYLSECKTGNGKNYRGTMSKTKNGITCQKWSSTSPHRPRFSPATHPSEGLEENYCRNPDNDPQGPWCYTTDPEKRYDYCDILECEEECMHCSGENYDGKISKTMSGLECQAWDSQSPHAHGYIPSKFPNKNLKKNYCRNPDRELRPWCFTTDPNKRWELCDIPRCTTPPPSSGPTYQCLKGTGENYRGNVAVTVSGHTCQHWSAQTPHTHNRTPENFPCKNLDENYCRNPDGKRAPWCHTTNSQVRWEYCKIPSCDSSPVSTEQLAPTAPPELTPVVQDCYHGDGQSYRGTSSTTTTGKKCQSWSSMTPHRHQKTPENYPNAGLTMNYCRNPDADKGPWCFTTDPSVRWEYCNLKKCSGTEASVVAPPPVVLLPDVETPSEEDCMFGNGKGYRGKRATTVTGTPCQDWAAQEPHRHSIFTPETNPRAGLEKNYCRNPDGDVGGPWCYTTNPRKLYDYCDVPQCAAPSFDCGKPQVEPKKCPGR
T1 sequence (P03952 391-638 limits assumed): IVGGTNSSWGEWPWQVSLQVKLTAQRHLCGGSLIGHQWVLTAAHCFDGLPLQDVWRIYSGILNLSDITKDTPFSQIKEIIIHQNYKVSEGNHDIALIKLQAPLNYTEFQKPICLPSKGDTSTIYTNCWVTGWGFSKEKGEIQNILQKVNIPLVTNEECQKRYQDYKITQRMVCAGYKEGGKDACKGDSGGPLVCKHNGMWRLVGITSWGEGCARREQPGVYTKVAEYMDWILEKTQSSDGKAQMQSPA
T1 sequence (P03952 20-390 partner limits assumed): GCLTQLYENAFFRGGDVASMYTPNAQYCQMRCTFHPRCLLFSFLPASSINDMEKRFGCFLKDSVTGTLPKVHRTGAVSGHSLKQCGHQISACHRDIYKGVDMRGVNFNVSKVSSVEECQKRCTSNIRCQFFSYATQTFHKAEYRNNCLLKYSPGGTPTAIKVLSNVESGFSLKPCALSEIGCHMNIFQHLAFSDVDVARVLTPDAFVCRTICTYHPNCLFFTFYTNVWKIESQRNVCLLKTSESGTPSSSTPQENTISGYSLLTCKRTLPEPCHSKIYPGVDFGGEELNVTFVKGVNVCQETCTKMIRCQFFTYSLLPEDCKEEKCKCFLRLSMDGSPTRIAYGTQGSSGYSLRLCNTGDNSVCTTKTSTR

The term LD50 denotes the dose at which mortality reaches 50%. As for `NC[C@H]1CC[C@H](C(=O)N[C@@H](Cc2ccc(OCc3ccccc3)cc2)C(=O)Nc2ccc(CCC(=O)O)cc2)CC1` [Compound 16], the “Effect on experimental pancreatitis Survival ratio(%) After 24 hours” value in [1] stood at 58.3%. The “Effect on experimental pancreatitis Survival ratio(%) After 48 hours” value in [1] amounted to 58.3%. Besides, the IC50 on human plasma kallikrein was 1.8 µM; at human plasmin [2] it was 12 µM; at human urokinase, 210 µM; at human plasmin [3], 9 µM. In “in vivo”, the LD50 was greater than 100 mg/kg.
Consider `NC[C@H]1CC[C@H](C(=O)NC(Cc2cccc(Oc3ccccc3)c2)C(=O)Nc2ccnc(Cl)c2)CC1` (mixture of isomers) [Compound 11], for which, in [1], the “Effect on experimental pancreatitis Survival ratio(%) After 24 hours” value is 42.0%. Also, in [1], the “Effect on experimental pancreatitis Survival ratio(%) After 48 hours” value is 26.7%. The IC50 at human plasma kallikrein was 0.43 µM; at human plasmin [2], 31 µM; on human urokinase, 190 µM; on human plasmin [3] it was 10 µM. Further, the LD50 in the series “in vivo” was greater than 100 mg/kg. Further, the “Effect on experimental shock (Survival ratio (%) after 24 hours)” value (from here on “Effect … (Survival ratio (%) after 24 hours)”) with experimental shock worked out at 84%.
Regarding `CC(=O)c1ccc(NC(=O)[C@@H](Cc2ccc(OCc3ccccn3)cc2)NC(=O)C2CCC(CN)CC2)cc1` (stereo partly drawn) [Compound 24], the IC50 on human plasma kallikrein was greater than 1000 µM; at human plasmin [2], 78 µM; at human urokinase, greater than 1000 µM; at human plasmin [3], 240 µM.
With `NC[C@H]1CC[C@H](C(=O)NC(Cc2cccc(Oc3ccccc3)c2)C(=O)Nc2cccnc2)CC1` (mixture of isomers) [Compound 14], the “Effect on experimental pancreatitis Survival ratio(%) After 24 hours” value in [1] was 58.3%. Besides, the “Effect on experimental pancreatitis Survival ratio(%) After 48 hours” value in series [1] amounted to 41.7%. Besides, the IC50 on human plasma kallikrein was found to be 2 µM; on human plasmin [2], 98 µM; at human urokinase, 250 µM; on human plasmin [3], 70 µM. The LD50 in the series “in vivo” came out at 50 mg/kg.
For `NC[C@H]1CC[C@H](C(=O)NC(Cc2cccc(Oc3ccccc3)c2)C(=O)Nc2ccncc2)CC1` (mixture of isomers) [Compound 13], the LD50 in “in vivo” was found to be 85 mg/kg. At bovine factor Xa, the IC50 was greater than 200 µM. Besides, in the series with experimental shock, the “Effect … (Survival ratio (%) after 24 hours)” value was 79%.
Consider `NCC1CCC(C(=O)NC(Cc2ccccc2)C(=O)Nc2ccc(CC(=O)O)cc2)CC1` (stereo not drawn) [Compound 17], for which the IC50 at human plasma kallikrein was determined as 1.8 µM. At human plasmin [2], the IC50 is 760 µM. In the series on experimental DIC, this compound registered a BUN of 34 ± 11 mg/dL, an FDP of 16 to 64 µg/mL, a Fbg of 143 ± 23 mg/dL and a GOT of 146 ± 21 U/ml. Moreover, in the series on experimental DIC, the Plat was 63 ± 2 x 10^4/μl and the CPK worked out at 22 ± 6 U/1. Moreover, the IC50 on bovine factor Xa was greater than 1000 µM. Further, the IC50 on human urokinase stood at 610 µM. Besides, the IC50 at human plasmin [3] is 460 µM.
Regarding `CC(=O)c1ccc(NC(=O)[C@H](Cc2ccc(OCc3ccccn3)cc2)NC(=O)c2ccc(CN)cc2)cc1` [Compound 19], in series [1], the “Effect on experimental pancreatitis Survival ratio(%) After 24 hours” value is listed as 50.0% and the “Effect on experimental pancreatitis Survival ratio(%) After 48 hours” value is given as 33.3%. Further, the IC50 on human plasma kallikrein came out at 12 µM. Moreover, the IC50 on human plasmin [2] stood at 4.2 µM. In the series on experimental DIC, this compound came in with a BUN of 30 ± 4 mg/dL, an FDP of 16 to 32 µg/mL, a Fbg of 147 ± 16 mg/dL and a GOT of 219 ± 39 U/ml. For the same compound, in the series with experimental DIC, the Plat is reported as 80 ± 11 x 10^4/μl and the CPK was 19 ± 2 U/1. For the same compound, the IC50 at human plasmin [3] is 2.5 µM.
Regarding `NCC1CCC(C(=O)NC(Cc2ccc(OCc3ccccc3)cc2)C(=O)Nc2ccncc2)CC1` (stereo not drawn) [Compound 23], the IC50 on human plasma kallikrein is 360 µM; at human plasmin [2], 120 µM; at human urokinase, greater than 1000 µM; on human plasmin [3] it was 140 µM. For the same compound, the LD50 in “in vivo” stood at 60 mg/kg. Also, in the series with experimental shock, the “Effect … (Survival ratio (%) after 24 hours)” value is recorded as 51%.
As to `NCC1CCC(C(=O)N[C@H](Cc2ccc([N+](=O)[O-])cc2)C(=O)Nc2ccc(C(=O)c3ccccc3)cc2)CC1` (stereo partly drawn) [Compound 25], the IC50 is greater than 250 µM on human plasma kallikrein, 240 µM at human plasmin [2], 170 µM at human urokinase and 58 µM at human plasmin [3]. Besides, the “Effect … (Survival ratio (%) after 24 hours)” value in the series with experimental shock was 70%.
For `CC(=O)c1ccc(NC(=O)[C@H](Cc2cccc(Oc3ccccc3)c2)NC(=O)[C@H]2CC[C@H](CN)CC2)cc1` [Compound 7], the LD50 in the series “in vivo” is 60 mg/kg. Further, at bovine factor Xa, the IC50 is greater than 200 µM. Also, the “Effect … (Survival ratio (%) after 24 hours)” value with experimental shock is 90%.
For `CCOC(=O)CCc1ccc(NC(=O)C(Cc2ccc(OCc3ccccc3)cc2)NC(=O)C2CCC(CN)CC2)cc1` (stereo not drawn) [Compound 21], in [1], the “Effect on experimental pancreatitis Survival ratio(%) After 24 hours” value stood at 45.5% and the “Effect on experimental pancreatitis Survival ratio(%) After 48 hours” value is listed as 36.4%. For the same compound, the LD50 in “in vivo” came out at 100 mg/kg.
On to `NC[C@H]1CC[C@H](C(=O)N[C@@H](Cc2ccc(OCc3ccccc3)cc2)C(=O)Nc2ccncn2)CC1` [Compound 15], for which the “Effect on experimental pancreatitis Survival ratio(%) After 24 hours” value in series [1] is 50.0%. Further, the “Effect on experimental pancreatitis Survival ratio(%) After 48 hours” value in series [1] is listed as 25.0%. Also, the IC50 at human plasma kallikrein turned out to be 5.1 µM; at human plasmin [2], 15 µM; on human urokinase, 110 µM; at human plasmin [3], 6.8 µM. The LD50 in the series “in vivo” is greater than 100 mg/kg.
Take `NCC1CCC(C(=O)NC(Cc2ccccc2)C(=O)Nc2ccc(C(=O)O)cc2)CC1` (stereo not drawn) [Compound 22]: the IC50 on human plasma kallikrein amounted to 2.7 µM. In addition, the LD50 in “in vivo” was greater than 100 mg/kg. In addition, the IC50 on human plasmin [2] was greater than 1000 µM. In the series on experimental DIC, the BUN was found to be 30 ± 3 mg/dL, the FDP lay within 32 to 64 µg/mL, the Fbg is 107 ± 18 mg/dL and the GOT came out at 195 ± 35 U/ml. In the series with experimental DIC, the Plat is given as 62 ± 12 x 10^4/μl and the CPK came out at 14 ± 3 U/1. At bovine factor Xa, the IC50 is greater than 400 µM. The IC50 on human urokinase was greater than 1000 µM. Moreover, the IC50 at human plasmin [3] stood at 560 µM.
